Here are results for 29 compounds from patent US6150385A, “1,3,4-thiadiazoles useful for the treatment of CMV infections” (Pharmacia & Upjohn Company, priority 1999, dated 2000).

T1 sequence (P08546 whole entry): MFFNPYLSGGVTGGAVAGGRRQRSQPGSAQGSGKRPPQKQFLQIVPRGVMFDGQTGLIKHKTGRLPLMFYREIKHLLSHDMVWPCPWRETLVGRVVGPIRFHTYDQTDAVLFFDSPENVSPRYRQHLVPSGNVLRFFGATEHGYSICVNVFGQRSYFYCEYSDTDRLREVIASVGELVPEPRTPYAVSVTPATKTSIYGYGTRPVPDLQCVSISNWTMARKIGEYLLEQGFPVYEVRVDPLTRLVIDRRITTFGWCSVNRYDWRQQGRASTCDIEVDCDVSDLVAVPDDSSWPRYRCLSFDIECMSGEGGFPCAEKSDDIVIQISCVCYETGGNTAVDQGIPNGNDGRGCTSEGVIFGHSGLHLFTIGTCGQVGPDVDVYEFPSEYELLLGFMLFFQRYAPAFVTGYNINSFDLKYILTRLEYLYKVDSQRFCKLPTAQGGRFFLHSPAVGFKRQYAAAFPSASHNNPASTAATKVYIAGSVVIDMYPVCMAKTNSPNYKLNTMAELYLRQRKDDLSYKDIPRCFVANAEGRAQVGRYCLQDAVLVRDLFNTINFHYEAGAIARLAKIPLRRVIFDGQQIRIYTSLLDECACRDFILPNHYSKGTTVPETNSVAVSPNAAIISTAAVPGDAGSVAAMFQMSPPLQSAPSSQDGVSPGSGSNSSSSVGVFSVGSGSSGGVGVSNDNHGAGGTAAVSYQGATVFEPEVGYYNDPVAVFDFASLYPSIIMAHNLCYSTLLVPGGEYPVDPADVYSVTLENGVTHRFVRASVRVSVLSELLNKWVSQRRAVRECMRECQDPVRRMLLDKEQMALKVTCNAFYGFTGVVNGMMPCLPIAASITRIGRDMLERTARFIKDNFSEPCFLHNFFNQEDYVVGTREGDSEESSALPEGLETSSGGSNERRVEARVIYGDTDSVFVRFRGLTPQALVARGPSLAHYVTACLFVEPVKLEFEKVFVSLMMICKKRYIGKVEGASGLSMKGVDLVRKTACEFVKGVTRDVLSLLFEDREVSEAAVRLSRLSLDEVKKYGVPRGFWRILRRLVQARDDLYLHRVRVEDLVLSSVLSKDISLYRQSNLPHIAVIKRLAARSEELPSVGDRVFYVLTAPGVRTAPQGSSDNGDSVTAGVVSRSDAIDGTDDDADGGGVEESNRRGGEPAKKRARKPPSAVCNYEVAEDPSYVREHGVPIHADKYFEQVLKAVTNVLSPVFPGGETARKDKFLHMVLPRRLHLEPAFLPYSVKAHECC

The assay addresses T1, HCMV polymerase (Human cytomegalovirus, UniProt P08546).
T1 construct: made in house; host or cells: SF-9 insect cells infected with recombinant baculovirus
Description: HCMV polymerase assay (scintillation proximity assay). It counts as biochemical. The conditions noted are these: percentage of inhibition at 25 μM concentration in CMV polymerase assay. As to the method:
The compounds of the present invention are tested in an polymerase assay to show activity described below, which is indicative of a compound's activity and thus of its use as an anti-viral agent.
The HCMV polymerase assay is performed using a scintillation proximity assay (SPA) as described in several references, such as N. D. Cook, et al., Pharmaceutical Manufacturing International, pages 49-53 (1992); K. Takeuchi, Laboratory Practice, September issue (1992); U.S. Pat. No. 4,568,649 (1986); which are incorporated by reference herein. Reactions are performed in 96-well plates. The assay is conducted in 100 μl volume with 5.4 mM HEPES (pH 7.5), 11.7 mM KCl, 4.5 mM MgCl2, 0.36 mg/ml BSA, and 90 nM ^3 H-dTTP. Assays are run with and without CHAPS, (3-[(3-Cholamidopropyl)-dimethylammonio]-1-propanesulfonate) at a final concentration of 2 mM. HCMV is diluted in enzyme dilution buffer containing 50% glycerol, 250 mM NaCl, 10 mM HEPES (pH 7.5), 100 μg/ml BSA, and 0.01% sodium azide. The HCMV polymerase, which is expressed in recombinant baculovirus-infected SF-9 cells and purified according to literature procedures, is added at 10% (or 10 μl) of the final reaction volume, i.e., 100 μl. Compounds are diluted in 50% DMSO and 10 μl are added to each well. Control wells contain an equivalent concentration of DMSO. Unless noted otherwise, reactions are initiated via the addition of 6 nM biotinylated poly(dA)-oligo(dT) template/primer to reaction mixtures containing the enzyme, substrate, and compounds of interest. Plates are incubated in a 25° C. or 37° C. H2 O bath and terminated via the addition of 40 μl/reaction of 0.5 M EDTA (pH 8) per well. Reactions are terminated within the time-frame during which substrate incorporation is linear and varied depending upon the enzyme and conditions used, i.e., 30 min. for HCMV polymerase. Ten μl of streptavidin-SPA beads (20 mg/ml in PBS/10% glycerol) are added following termination of the reaction. Plates are incubated 10 min. at 37° C., then equilibrated to room temperature, and counted on a Packard Topcount.
In TABLE 1, "MS" refers to mass spectral data, "% inhib" refers to percentage of inhibition at 25 μM concentration in CMV polymerase assay.
Turning to `NS(=O)(=O)c1ccc(CNc2nnc(NC(=O)c3ccc(I)cc3)s2)cc1` [compound 57, N-(5-{[4-(aminosulfonyl)benzyl]amino}-1,3,4-thiadiazol-2-yl)-4-iodobenzamide], the inhibition at 25 µM stood at 76.3%.

As to `CCCCCCCC/C=C/CCCCCCCC(=O)Nc1nnc(NCCSc2ccccc2)s1` [compound 58, (E)-N-(5-{[2-(phenylsulfanyl)ethyl]amino}-1,3,4-thiadiazol-2-yl)-9-octadecenamide], the inhibition at 25 µM stood at 75.8%.

In the case of `O=C(Nc1nnc(NCCCCc2ccccc2)s1)c1ccc(I)cc1` [compound 59, 4-iodo-N-{5-[(4-phenylbutyl)amino]-1,3,4-thiadiazol-2-yl}benzamide], testing at 25 µM gave an inhibition of 74.6%.

`CCCCCCCCCCCNc1nnc(NC(=O)c2ccc([N+](=O)[O-])o2)s1` [compound 60, 5-nitro-N-[5-(undecylamino)-1,3,4-thiadiazol-2-yl]-2-furamide]: the inhibition at 25 µM amounted to 74.5%.

As for `CCOc1ccc2ccccc2c1C(=O)Nc1nnc(NCCC(c2ccccc2)c2ccccc2)s1` [compound 61, N-{5-[(3,3-diphenylpropyl)amino]-1,3,4-thiadiazol-2-yl}-2-ethoxy-1-naphthamide], the inhibition at 25 µM stood at 74.2%.

Turning to `O=C(Nc1nnc(NCCCNC2CCCCC2)s1)c1cc2ccccc2s1` [compound 62, N-(5-{[3-(cyclohexylamino)propyl]amino}-1,3,4-thiadiazol-2-yl)-1-benzothiophene-2-carboxamide], 25 µM produced 74% inhibition.

Regarding `O=C(Nc1nnc(NCCC(c2ccccc2)c2ccccc2)s1)c1c(Cl)cccc1Cl` [compound 63, 2,6-dichloro-N-{5-[(3,3-diphenylpropyl)amino]1,3,4-thiadiazol-2-yl}benzamide], testing at 25 µM gave an inhibition of 73.8%.

In turn, `CCCCCCCC/C=C/CCCCCCCC(=O)Nc1nnc(NCCC(c2ccccc2)c2ccccc2)s1` [compound 64, (E)-N-{5-[(3,3-diphenylpropyl)amino]-1,3,4-thiadiazol-2-yl}-9-octadecenamide] had an inhibition at 25 µM of 73.6%.

For the compound `CCCCCCCCCCCNc1nnc(NC(=O)c2ccc(C#N)cc2)s1` [compound 65, 4-cyano-N-[5-(undecylamino)-1,3,4-thiadiazol-2-yl]benzamide], the inhibition at 25 µM came to 72.2%.

With `CCOc1ccc2ccccc2c1C(=O)Nc1nnc(NCc2cccnc2)s1` [compound 66, 2-ethoxy-N-{5-[(3-pyridinylmethyl)amino]-1,3,4-thiadiazol-2-yl}-1-naphthamide], the inhibition at 25 µM stood at 71.9%.

`O=C(/C=C/c1ccccc1Cl)Nc1nnc(NCc2ccc(F)cc2)s1` [compound 67, (E)-3-(2-chlorophenyl)-N-{5-[(4-fluorobenzyl)amino]-1,3,4-thiadiazol-2-yl}-2-propenamide]: testing at 25 µM gave an inhibition of 71.7%.

On to `NS(=O)(=O)c1ccc(CCNc2nnc(NC(=O)c3ccc(I)cc3)s2)cc1` [compound 68, N-(5-{[4-(aminosulfonyl)phenthyl]amino}-1,3,4-thiadiazol-2-yl)-4-iodobenzamide], for which testing at 25 µM gave an inhibition of 71.1%.

Take `CCOc1ccc2ccccc2c1C(=O)Nc1nnc(NCCNc2ccccc2)s1` [compound 69, N-{5-[(2-anilinoethyl)amino]-1,3,4-thiadiazol-2-yl}-2-ethoxy-1-naphthamide]: the inhibition at 25 µM was 70.6%.

Consider `CCOc1ccc2ccccc2c1C(=O)Nc1nnc(NCc2ccccn2)s1` [compound 70, 2-ethoxy-N-{5-[(2-pyridinylmethyl)amino]-1,3,4-thiadiazol-2-yl}-1-naphthamide], for which the inhibition at 25 µM came out at 70.4%.

`CCOc1ccc2ccccc2c1C(=O)Nc1nnc(NCc2ccc(F)cc2)s1` [compound 71, 2-ethoxy-N-{5-[(4-fluorobenzyl)amino]-1,3,4-thiadiazol-2-yl}-1-naphthamide] showed an inhibition at 25 µM of 69.8%.

`CCCCCCCC/C=C/CCCCCCCC(=O)Nc1nnc(NCc2cccnc2)s1` [compound 72, (E)-N-{5-[(3-pyridinylmethyl)amino]-1,3,4-thiadiazol-2-yl}-9-octadecenamide] had an inhibition at 25 µM of 69.3%.

Turning to `O=C(Nc1nnc(NCc2ccc(Cl)c(Cl)c2)s1)c1c(Cl)cccc1Cl` [compound 73, 2,6-dichloro-N-{5-[(3,4-dichlorobenzyl)amino]-1,3,4-thiadiazol-2-yl}benzamide], the inhibition at 25 µM was 69.1%.

Compound `N#Cc1ccc(C(=O)Nc2nnc(NCc3ccc(F)cc3)s2)cc1` [compound 74, 4-cyano-N-{5-[(4-fluorobenzyl)amino]-1,3,4-thiadiazol-2-yl}benzamide] returned an inhibition at 25 µM of 69%.

Turning to `O=C(/C=C/c1ccccc1Cl)Nc1nnc(NCCCNC2CCCCC2)s1` [compound 75, (E)-3-(2-chlorophenyl)-N-(5-{[3-(cyclohexylamino)propyl]amino}-1,3,4-thiadiazol-2-yl)-2-propenamide], the inhibition at 25 µM is 68.8%.

In turn, `O=C(Nc1nnc(NC2CCCc3ccccc32)s1)c1c(Cl)cccc1Cl` (centres unmarked) [compound 76, 2,6-dichloro-N-[5-(1,2,3,4-tetrahydro-1-naphthalenylamino)-1,3,4-thiadiazol-2-yl]benzamide] displayed an inhibition at 25 µM of 68.5%.

`O=C(/C=C/c1ccccc1)Nc1nnc(NCCc2cccs2)s1` [compound 77, (E)-3-phenyl-N-(5-{[2-(2-thienyl)ethyl]amino}-1,3,4-thiadiazol-2-yl)-2-propenamide] came in with an inhibition at 25 µM of 68.3%.

`CCOc1ccc2ccccc2c1C(=O)Nc1nnc(NCc2cccs2)s1` [compound 78, 2-ethoxy-N-{5-[(2-thienylmethyl)amino]-1,3,4-thiadiazol-2-yl}-1-naphthamide] gave an inhibition at 25 µM of 68.2%.

As for `CCCCCCCC/C=C/CCCCCCCC(=O)Nc1nnc(NCCC(=O)OC(C)(C)C)s1` [compound 79, tert-butyl-3-({5-[(E)-9-octadecenoylamino]-1,3,4-thiadiazol-2-yl}amino)propanoate], the inhibition at 25 µM came out at 68%.

`CCCCCCCCCCCNc1nnc(NC(=O)c2cccc([N+](=O)[O-])c2)s1` [compound 80, 3-nitro-N-[5-(undecylamino)-1,3,4-thiadiazol-2-yl]benzamide]: the inhibition at 25 µM amounted to 67.9%.

`O=C(/C=C/c1ccccc1)Nc1nnc(NCCCCc2ccccc2)s1` [compound 81, (E)-3-phenyl-N-{5-[(4-phenylbutyl)amino]-1,3,4-thiadiazol-2-yl}-2-propenamide] came in with an inhibition at 25 µM of 67.9%.

In turn, `N#Cc1ccc(C(=O)Nc2nnc(NCCc3c[nH]c4ccccc34)s2)cc1` [compound 82, 4-cyano-N-(5-{[2-(1H-indol-3-yl)ethyl]amino}-1,3,4-thiadiazol-2-yl)benzamide] gave an inhibition at 25 µM of 67.7%.

Consider `N#Cc1ccc(C(=O)Nc2nnc(NCC(c3ccccc3)c3ccccc3)s2)cc1` [compound 83, 4-cyano-N-{5-[(2,2-diphenylethyl)amino]-1,3,4-thiadiazol-2-yl}benzamide], for which at 25 µM the inhibition was 67.7%.

In turn, `O=C(Nc1nnc(NCc2ccncc2)s1)c1c(Cl)cccc1Cl` [compound 84, 2,6-dichloro-N-{5-[(4-pyridinylmethyl)amino]-1,3,4-thiadiazol-2-yl}benzamide] registered an inhibition at 25 µM of 67.6%.

`O=C(Nc1nnc(NC2CCN(Cc3ccccc3)CC2)s1)c1ccc2c(c1)C(=O)OC2=O` [compound 85, N-{5-[(1-benzyl-4-piperidinyl)amino]-1,3,4-thiadiazol-2-yl}-1,3-dioxo-1,3-dihydro-2-benzofuran-5-carboxamide]: 25 µM produced 67.3% inhibition.
